Assay results reported in patent US20200345862A1, “TRANSITION METAL-BASED FUNCTIONAL MOIETIES FOR PREPARING CELL TARGETING CONJUGATES” (priority 2017, published 2020).
Where two headings read alike, the source gives them in different places.

Conditions: HEPES pH 8.1, 47° C., 4 h
Experimental: To a mixture of water (101 μL) and 200 mM HEPES buffer (12.3 μL, pH 8.1) containing different concentrations of halide salts (0, 100, 500, 1000, and 2000 mM NaCl (for 4a; pH 8.1; the final concentrations of NaCl in the reaction mixtures were 0, 10, 50, 100, and 200 mM, respectively) or 0, 100, and 500 mM NaBr (for 5d; pH 8.1; the final concentrations of NaBr in the reaction mixtures were 0, 10, and 50 mM, respectively) or 0 and 100 mM NaI (for 6k; pH 8.1; the final concentrations of NaI in the reaction mixtures were 0 and 10 mM, respectively), [PtL2((Fe)DFO-suc-pip)(ethane-1,2-diamine)]^+ TFA^− (4a (L2=Cl), 5d (L2=Br) or 6k (L2=I)) (10.0 μL, 5 mM in 20 mM NaCl (4a) or 5 mM in water (5d and 6k), 5.0 eq.) was added. The samples were incubated in a thermoshaker at 47° C. for 1 h, 2 h, and 4 h, followed by the HPLC analysis at 430 nm.

Substance | concentration of the semi-final product after incubation (stability) ([NaBr]=50 mM, FIG. 5) | concentration of the semi-final product after incubation (stability) ([NaI]=10 mM, FIG. 6)
[(Fe)DFO-pip-PtBr(ethane-1,2-diamine)]^+ TFA^− [5d] | 95% | 
[Pt((Fe)DFO-suc-pip)(ethane-1,2-diamine)I]^+ TFA^− [6k] |  | 98%
